According to paper PMC6934184, “Selective DNA-PKcs inhibition extends the therapeutic index of localized radiotherapy and chemotherapy” (The Journal of Clinical Investigation, 2019):

Target: T1, RIPK2 (Homo sapiens, UniProt O43353)
T1 construct: purchased Thermo Fisher Scientific (Life Technologies) SelectScreen
Experiment: SelectScreen LanthaScreen
Assay type: binding
Settings: read-out: % displacement
Method: The in vitro kinase selectivity of NU5455 was determined using the SelectScreen Broad Assay Panel (Thermo Fisher Scientific) involving activity and binding assays (Supplemental Table 1). […] Class IA PI3Ks were measured using the p85α subunit.
Kinase [ATP] % Assay Kinase [ATP] % Assay Kinase [ATP] % Assay Kinase [ATP] % Assay […]
MAPK11 (p38 beta) Km app 9.5 Z RIPK2 n/a 3.1 L AKT2 (PKB beta) Km app 0.0 Z PRKCE (PKC epsilon) Km app -4.9 Z […]
SGK (SGK1) Km app 8.5 Z MAP4K2 (GCK) Km app 2.7 Z TLK2 n/a -0.3 L STK38 (NDR) n/a -5.9 L
MERTK (cMER) Km app 8.3 Z CDK2/cyclin A Km app 2.7 Z TGFBR1 (ALK5) n/a -0.4 L MATK (HYL) Km app -6.3 Z
FYN Km app 8.3 Z EPHA1 Km app 2.7 Z CLK3 Km app -0.5 Z ABL1 E255K Km app -6.6 Z
TEC n/a 8.1 L CDK2/cyclin E1 n/a 2.7 L MAP3K14 (NIK) n/a -0.5 L STK17A (DRAK1) n/a -6.6 L
KIT V654A n/a 8.1 L TESK2 n/a 2.7 L AKT3 (PKB gamma) Km app -0.5 Z JAK2 JH1 JH2 Km app -6.7 Z
ROS1 Km app 8.0 Z SPHK1 Km app 2.7 A MAP3K9 (MLK1) Km app -0.5 Z PRKACB (PRKAC beta) n/a -6.8 L
FGFR3 K650E Km app 7.9 Z AMPK A2/B1/G1 Km app 2.6 Z IKBKB (IKK beta) Km app -0.6 Z PDGFRA (PDGFR alpha) Km app -6.8 Z
RAF1 (cRAF) Y340D Y341D 100 7.9 Z DYRK3 Km app 2.6 Z CAMK2A (CaMKII alpha) Km app -0.6 Z NEK9 Km app -7.2 Z
PI4KA (PI4K alpha) 10 7.8 A CSNK1D (CK1 delta) Km app 2.6 Z PRKCB1 (PKC beta I) Km app -0.7 Z PDK1 Km app -7.3 Z […]

T1 sequence (O43353 whole entry): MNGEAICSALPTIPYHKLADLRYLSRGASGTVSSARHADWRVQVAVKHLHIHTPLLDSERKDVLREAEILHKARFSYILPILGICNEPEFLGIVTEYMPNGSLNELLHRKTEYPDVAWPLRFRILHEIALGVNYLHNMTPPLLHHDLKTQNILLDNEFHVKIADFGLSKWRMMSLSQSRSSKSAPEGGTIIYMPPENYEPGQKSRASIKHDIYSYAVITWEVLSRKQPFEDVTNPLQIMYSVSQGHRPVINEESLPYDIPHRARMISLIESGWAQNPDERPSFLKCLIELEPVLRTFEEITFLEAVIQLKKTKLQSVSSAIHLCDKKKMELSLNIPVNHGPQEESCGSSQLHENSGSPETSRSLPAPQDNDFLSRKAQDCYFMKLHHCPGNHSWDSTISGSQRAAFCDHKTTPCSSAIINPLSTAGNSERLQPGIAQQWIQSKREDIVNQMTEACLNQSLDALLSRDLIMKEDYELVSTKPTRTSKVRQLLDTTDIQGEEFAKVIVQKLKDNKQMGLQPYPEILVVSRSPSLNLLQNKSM

CN(C(=O)CN1CCOCC1)c1ccc2sc3c(-c4cccc5c(=O)cc(N6CC7CCC(C6)O7)oc45)cccc3c2c1 [NU5455]
inhibition at 1 µM: 3.1%
